Reference: PubChem BioAssay AID1963982 (Molecular Pharmacology Branch, DTP, NCI, 2024)
pIC50: −log10 of the molar value.

Tested on: 313798-341-R-J2-PDC spheroids, viability
Assay: Anticancer human tumor 313798-341-R-J2-PDC patient-derived cervical squamous cell carcinoma cell line growth inhibition [PI3K]
Conditions: spheroids with HUVEC and MSC; for pIC50: curve of first compound; for viability, T/C: stronger effect = lower value
How it was run: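 We assembled tumor spheroids that included a stromal compartment of HUVEC and MSCs, then exposed them to targeted agents alone and together with PI3K pathway inhibitors. Concentration series descended by half-log from clinically achievable Cmax levels. Viability served as the endpoint.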

[1] = second compound 0.00316 µM, first compound 0.0316 µM
[2] = second compound 0.00316 µM, first compound 0.1 µM
[3] = second compound 0.00316 µM, first compound 0.316 µM
[4] = second compound 0.00316 µM, first compound 1 µM
[5] = second compound 0.00316 µM, first compound 3.16 µM
[6] = second compound 0.00316 µM, first compound 10 µM
[7] = second compound 0.01 µM, first compound 0.0316 µM
[8] = second compound 0.01 µM, first compound 0.1 µM
[9] = second compound 0.01 µM, first compound 0.316 µM
[10] = second compound 0.01 µM, first compound 1 µM
[11] = second compound 0.01 µM, first compound 3.16 µM
[12] = second compound 0.01 µM, first compound 10 µM
[13] = second compound 0.0316 µM, first compound 0.0316 µM
[14] = second compound 0.0316 µM, first compound 0.1 µM
[15] = second compound 0.0316 µM, first compound 0.316 µM
[16] = second compound 0.0316 µM, first compound 1 µM
[17] = second compound 0.0316 µM, first compound 3.16 µM
[18] = second compound 0.0316 µM, first compound 10 µM
[19] = second compound 0.1 µM, first compound 0.0316 µM
[20] = second compound 0.1 µM, first compound 0.1 µM
[21] = second compound 0.1 µM, first compound 0.316 µM
[22] = second compound 0.1 µM, first compound 1 µM
[23] = second compound 0.1 µM, first compound 3.16 µM
[24] = second compound 0.1 µM, first compound 10 µM
[25] = second compound 0.316 µM, first compound 0.0316 µM
[26] = second compound 0.316 µM, first compound 0.1 µM
[27] = second compound 0.316 µM, first compound 0.316 µM
[28] = second compound 0.316 µM, first compound 1 µM
[29] = second compound 0.316 µM, first compound 3.16 µM
[30] = second compound 0.316 µM, first compound 10 µM
[31] = second compound 1 µM, first compound 0.0316 µM
[32] = second compound 1 µM, first compound 0.1 µM
[33] = second compound 1 µM, first compound 0.316 µM
[34] = second compound 1 µM, first compound 1 µM
[35] = second compound 1 µM, first compound 3.16 µM
[36] = second compound 1 µM, first compound 10 µM
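Further: spheroids exposed to compounds for seven days.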
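Wherever viability, T/C is given: 100% = DMSO vehicle control viability.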

For `CC1(C)CCC(CN2CCN(c3ccc(C(=O)NS(=O)(=O)c4ccc(NCC5CCOCC5)c([N+](=O)[O-])c4)c(Oc4cnc5[nH]ccc5c4)c3)CC2)=C(c2ccc(Cl)cc2)C1` + COc1c(OCCCN2CCOCC2)ccc2c3n(c(=NC(=O)c4cnc(N)nc4)nc12)CCN3, the pIC50 (second compound 0.00316 µM) was < 5.00, the pIC50 (second compound 0.01 µM) was < 5.00 and the pIC50 (second compound 0.0316 µM) was < 5.00. For the same molecule, the pIC50 (second compound 0.1 µM) was > 7.50, the pIC50 (second compound 0.316 µM) was > 7.50 and the pIC50 (second compound 1 µM) was > 7.50. It also gave a viability, T/C [1] of 98.3%, a viability, T/C [2] of 107% and a viability, T/C [3] of 113%. The viability, T/C [4] was 101%, the viability, T/C [5] was 87.7% and the viability, T/C [6] was 102%. It also gave a viability, T/C [7] of 105%, a viability, T/C [8] of 110% and a viability, T/C [9] of 88.7%. For the same molecule, the viability, T/C [10] was 96.5%, the viability, T/C [11] was 66.1% and the viability, T/C [12] was 95.2%. It also gave a viability, T/C [13] of 70%, a viability, T/C [14] of 77.1% and a viability, T/C [15] of 69.3%. It also gave a viability, T/C [16] of 75.8%, a viability, T/C [17] of 47.4% and a viability, T/C [18] of 73.2%. For the same molecule, the viability, T/C [19] was 44.4%, the viability, T/C [20] was 41.4% and the viability, T/C [21] was 40.3%. For the same molecule, the viability, T/C [22] was 37.8%, the viability, T/C [23] was 35.1% and the viability, T/C [24] was 41.2%. The viability, T/C [25] was 14.6%, the viability, T/C [26] was 14.6% and the viability, T/C [27] was 16.5%. The viability, T/C [28] was 14.2%, the viability, T/C [29] was 13.3% and the viability, T/C [30] was 15%. For the same molecule, the viability, T/C [31] was 9.63%, the viability, T/C [32] was 9.06% and the viability, T/C [33] was 11.1%. The viability, T/C [34] was 10.6%, the viability, T/C [35] was 12% and the viability, T/C [36] was 11.2%.
With `C[C@@H](NC(=O)c1ncnc(N)c1Cl)c1ncc(C(=O)Nc2cc(C(F)(F)F)c(Cl)cn2)s1` + COc1c(OCCCN2CCOCC2)ccc2c3n(c(=NC(=O)c4cnc(N)nc4)nc12)CCN3 the pIC50 (second compound 0.00316 µM) was < 5.00, the pIC50 (second compound 0.01 µM) was < 5.00 and the pIC50 (second compound 0.0316 µM) was < 5.00. The pIC50 (second compound 0.1 µM) was 7.46, the pIC50 (second compound 0.316 µM) was > 7.50 and the pIC50 (second compound 1 µM) was > 7.50. The viability, T/C [1] was 99.2%, the viability, T/C [2] was 99% and the viability, T/C [3] was 102%. For the same molecule, the viability, T/C [4] was 107%, the viability, T/C [5] was 114% and the viability, T/C [6] was 111%. It also gave a viability, T/C [7] of 92.4%, a viability, T/C [8] of 95.5% and a viability, T/C [9] of 88.2%. The viability, T/C [10] was 104%, the viability, T/C [11] was 104% and the viability, T/C [12] was 103%. For the same molecule, the viability, T/C [13] was 73.6%, the viability, T/C [14] was 84.1% and the viability, T/C [15] was 84.4%. The viability, T/C [16] was 89.9%, the viability, T/C [17] was 97.2% and the viability, T/C [18] was 96.9%. For the same molecule, the viability, T/C [19] was 54%, the viability, T/C [20] was 45.5% and the viability, T/C [21] was 46.5%. It also gave a viability, T/C [22] of 48%, a viability, T/C [23] of 50.5% and a viability, T/C [24] of 46.4%. The viability, T/C [25] was 17.9%, the viability, T/C [26] was 20.6% and the viability, T/C [27] was 19.9%. For the same molecule, the viability, T/C [28] was 19.6%, the viability, T/C [29] was 23.1% and the viability, T/C [30] was 16.5%. The viability, T/C [31] was 11.7%, the viability, T/C [32] was 12.9% and the viability, T/C [33] was 13.2%. The viability, T/C [34] was 13.3%, the viability, T/C [35] was 14.5% and the viability, T/C [36] was 12.5%.
For `Cn1ncnc1[C@H]1c2n[nH]c(=O)c3cc(F)cc(c23)N[C@@H]1c1ccc(F)cc1` + COc1c(OCCCN2CCOCC2)ccc2c3n(c(=NC(=O)c4cnc(N)nc4)nc12)CCN3, the pIC50 (second compound 0.00316 µM) was < 7.00, the pIC50 (second compound 0.01 µM) was < 7.00 and the pIC50 (second compound 0.0316 µM) was < 7.00. For the same molecule, the pIC50 (second compound 0.1 µM) was > 9.50, the pIC50 (second compound 0.316 µM) was > 9.50 and the pIC50 (second compound 1 µM) was > 9.50. It also gave a viability, T/C (second compound 0.00316 µM, first compound 0.000316 µM) of 97.5%, a viability, T/C (second compound 0.00316 µM, first compound 0.001 µM) of 95.9% and a viability, T/C (second compound 0.00316 µM, first compound 0.00316 µM) of 107%. For the same molecule, the viability, T/C (second compound 0.00316 µM, first compound 0.01 µM) was 111%, the viability, T/C [1] was 97.9% and the viability, T/C [2] was 93.1%. The viability, T/C (second compound 0.01 µM, first compound 0.000316 µM) was 106%, the viability, T/C (second compound 0.01 µM, first compound 0.001 µM) was 107% and the viability, T/C (second compound 0.01 µM, first compound 0.00316 µM) was 99%. The viability, T/C (second compound 0.01 µM, first compound 0.01 µM) was 89.6%, the viability, T/C [7] was 87.9% and the viability, T/C [8] was 87.3%. It also gave a viability, T/C (second compound 0.0316 µM, first compound 0.000316 µM) of 68.4%, a viability, T/C (second compound 0.0316 µM, first compound 0.001 µM) of 97.1% and a viability, T/C (second compound 0.0316 µM, first compound 0.00316 µM) of 75.8%. The viability, T/C (second compound 0.0316 µM, first compound 0.01 µM) was 71.5%, the viability, T/C [13] was 64.2% and the viability, T/C [14] was 65.1%. For the same molecule, the viability, T/C (second compound 0.1 µM, first compound 0.000316 µM) was 39.6%, the viability, T/C (second compound 0.1 µM, first compound 0.001 µM) was 49.8% and the viability, T/C (second compound 0.1 µM, first compound 0.00316 µM) was 46.6%. The viability, T/C (second compound 0.1 µM, first compound 0.01 µM) was 43.6%, the viability, T/C [19] was 42.4% and the viability, T/C [20] was 37.1%. For the same molecule, the viability, T/C (second compound 0.316 µM, first compound 0.000316 µM) was 17.3%, the viability, T/C (second compound 0.316 µM, first compound 0.001 µM) was 18.4% and the viability, T/C (second compound 0.316 µM, first compound 0.00316 µM) was 15.1%. It also gave a viability, T/C (second compound 0.316 µM, first compound 0.01 µM) of 15.7%, a viability, T/C [25] of 12.8% and a viability, T/C [26] of 15.7%. It also gave a viability, T/C (second compound 1 µM, first compound 0.000316 µM) of 11.8%, a viability, T/C (second compound 1 µM, first compound 0.001 µM) of 14.1% and a viability, T/C (second compound 1 µM, first compound 0.00316 µM) of 14.5%. The viability, T/C (second compound 1 µM, first compound 0.01 µM) was 12.5%, the viability, T/C [31] was 13.9% and the viability, T/C [32] was 10.1%.
